Where two headings read alike, the source gives them in different places.
Experiments:
Human 5-HT Transporter = molecular target: T1, Human 5-HT Transporter (Homo sapiens, UniProt P31645); experiment: Inhibition of 3H-5-HT Uptake by cells Possessing the Human 5-HT Transporter (HC 5HT Transporter); format: cell-based
T1 construct: endogenous in cells; host or cells: Jar cells (human carcinoma), treated with staurosporine
Procedure: [Staurosporine greatly increases the expression of the 5-HT-transporter.] On the day of assay, vehicle, excess of fluoxetine, or test compound is added to various wells on the plate. All wells then receive ^3H-5-HT and are incubated at 37° C. for 5 min. The wells are then washed with ice cold 50 mM Tris HCl (pH 7.4) buffer and aspirated to remove free ^3H-5-HT. 25 μl of 0.25 M NaOH is then added to each well to lyse the cells and 75 μl scintillation cocktail (Microscint™ 20) added prior to quantitation on a Packard TopCount machine. Tubes with vehicle represent total possible uptake, radioactivity counted in tubes with fluoxetine represent nonspecific binding/uptake and is subtracted from the total possible uptake to give total possible specific uptake. This nonspecific binding (usual low in number) is then subtracted from the counts obtained in wells with various test compounds (or different concentrations of test drug) to give specific uptake in the presence of drug. Specific uptake is then expressed as a % of control values and is analyzed using nonlinear regression analysis (Prizm) to determine IC50 values. If the compound is active at inhibiting 5-HT uptake, its counts will be close to that obtained with fluoxetine.

human 5-HT1A receptors = molecular target: T2, human 5-HT1A receptors (Homo sapiens, UniProt P08908); experiment: [3H] 8-OH-DPAT displacement from the 5-HT1A serotonin receptor (CHO cells); format: binding; conditions: for inhibition at 1 µM: @ 1000 nM, printed in the 5-HT1A Ki column
T2 construct: expressed in transfected cells; host or cells: CHO cells
T2 sequence (P08908 1-422): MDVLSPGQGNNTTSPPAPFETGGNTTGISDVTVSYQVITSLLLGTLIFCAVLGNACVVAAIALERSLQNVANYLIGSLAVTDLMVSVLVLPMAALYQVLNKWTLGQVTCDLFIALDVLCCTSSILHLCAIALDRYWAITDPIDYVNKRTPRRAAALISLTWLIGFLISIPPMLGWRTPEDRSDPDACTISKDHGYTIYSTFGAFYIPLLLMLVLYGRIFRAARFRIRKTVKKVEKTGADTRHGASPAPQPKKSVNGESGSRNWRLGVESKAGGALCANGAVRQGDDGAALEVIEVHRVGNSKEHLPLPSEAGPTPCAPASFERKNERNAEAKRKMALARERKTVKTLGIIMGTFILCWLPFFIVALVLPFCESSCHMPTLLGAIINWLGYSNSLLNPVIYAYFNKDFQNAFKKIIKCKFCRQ
Source text: High affinity for the serotonin 5-HT1A receptor was established by testing the claimed compound's ability to displace [^3H] 8-OH-DPAT (dipropylaminotetralin) from the 5-HT1A serotonin receptor following a modification of the procedure of Hall et al., J. Neurochem. 44, 1685 (1985) which utilizes CHO cells stably transfected with human 5-HT1A receptors.

5-HT transporter = molecular target: T3, 5-HT transporter (Rattus norvegicus, UniProt P31652); experiment: Rat Brain 3H-Paroxetine Binding Assay (RB 5HT Transporter)
T3 construct: from tissue; host or cells: rat frontal cortex membranes (male Sprague-Dawley rats)
Procedure: Rat Brain ^3H-Paroxetine Binding Assay (RB 5HT Transporter):
This assay was used to determine a compound's affinity of the 5-HT transporter.
A protocol similar to that used by Cheetham et. al. (Neuropharmacol. 1993, 32, 737) was used. Briefly, frontal cortical membranes prepared from male S.D. rats were incubated with ^3H-parxetine (0.1 nM) for 60 min. at 25° C. All tubes also contained either vehicle, test compound (one to eight concentrations), or a saturating concentration of fluoxetine (10 μM) to define […]. All reactions are terminated by the addition of ice cold Tris buffer followed by rapid filtration using a Tom Tech filtration device to separate bound from free ^3H-paroxetine. Bound radioactivity was quantitated using a Wallac 1205 Beta Plate® counter. Nonlinear regression analysis was used to determine IC50 values which were converted to Ki values using the method of Cheng and Prusoff (Biochem. Pharmacol. 1973, 22, 3099);

[1] = Jar cells, 3H-5-HT uptake, read-out: HC 5HT Transporter IC50
[2] = [3H] 8-OH-DPAT displacement, CHO cells with human 5-HT1A receptors, read-out: 5-HT1A Ki
[3] = rat frontal cortical membranes, 3H-paroxetine, read-out: RB 5HT Transporter Ki

T1 sequence (P31645 whole entry): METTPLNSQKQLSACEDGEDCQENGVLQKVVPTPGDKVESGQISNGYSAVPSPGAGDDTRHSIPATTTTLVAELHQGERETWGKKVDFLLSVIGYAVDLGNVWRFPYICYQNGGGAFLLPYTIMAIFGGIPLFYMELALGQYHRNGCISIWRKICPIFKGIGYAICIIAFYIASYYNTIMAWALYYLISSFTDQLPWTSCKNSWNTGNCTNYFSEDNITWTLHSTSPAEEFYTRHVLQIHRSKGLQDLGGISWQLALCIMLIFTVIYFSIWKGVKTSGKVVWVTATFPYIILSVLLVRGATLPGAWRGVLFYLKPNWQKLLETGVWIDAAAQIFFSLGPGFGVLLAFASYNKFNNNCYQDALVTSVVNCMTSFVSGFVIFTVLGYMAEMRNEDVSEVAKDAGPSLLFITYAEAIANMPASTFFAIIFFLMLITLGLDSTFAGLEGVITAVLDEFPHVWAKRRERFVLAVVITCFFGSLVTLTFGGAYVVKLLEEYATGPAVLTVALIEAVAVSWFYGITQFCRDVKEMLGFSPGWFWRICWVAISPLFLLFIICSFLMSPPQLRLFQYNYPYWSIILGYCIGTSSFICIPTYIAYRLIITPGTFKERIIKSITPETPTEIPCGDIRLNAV
T3 sequence (P31652 whole entry): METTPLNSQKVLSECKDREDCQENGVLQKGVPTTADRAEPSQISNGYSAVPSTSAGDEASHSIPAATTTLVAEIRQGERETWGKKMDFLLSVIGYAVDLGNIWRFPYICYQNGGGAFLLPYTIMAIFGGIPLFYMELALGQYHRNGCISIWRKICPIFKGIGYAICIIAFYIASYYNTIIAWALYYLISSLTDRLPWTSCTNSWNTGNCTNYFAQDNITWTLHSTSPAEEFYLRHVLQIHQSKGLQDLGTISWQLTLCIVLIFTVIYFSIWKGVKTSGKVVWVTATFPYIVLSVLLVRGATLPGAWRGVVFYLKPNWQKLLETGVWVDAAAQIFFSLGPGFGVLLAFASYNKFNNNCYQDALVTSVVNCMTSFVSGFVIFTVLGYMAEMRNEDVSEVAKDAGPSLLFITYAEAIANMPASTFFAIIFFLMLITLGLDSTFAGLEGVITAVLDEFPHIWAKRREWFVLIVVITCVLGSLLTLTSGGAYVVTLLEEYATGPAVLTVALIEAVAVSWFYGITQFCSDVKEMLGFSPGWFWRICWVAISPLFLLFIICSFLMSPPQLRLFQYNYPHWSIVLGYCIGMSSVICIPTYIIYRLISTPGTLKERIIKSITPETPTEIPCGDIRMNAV

Row | SMILES | melting point [°C] | IC50 (Human 5-HT Transporter; [1]) [nM] | Ki (5-HT transporter) [nM] | Ki (human 5-HT1A receptors; [2]) [nM] | Ki (5-HT transporter; [3]) [nM] | inhibition at 1 µM (human 5-HT1A receptors) [%] | other results
1 | O=c1n(CCCN2CC=C(c3c[nH]c4ccccc34)CC2)nc2ccccn12 | 173.3 |  |  |  |  |  | 
2 | O=c1n(CCN2CC=C(c3c[nH]c4ccccc34)CC2)nc2ccccn12 | 170.4 |  |  |  |  |  | 
3 | O=c1n(CCCCN2CC=C(c3c[nH]c4ccccc34)CC2)nc2ccccn12 | 123.2 |  |  |  |  |  | 
4 | COc1cc2ncn(CCN3CC=C(c4c[nH]c5ccccc45)CC3)c(=O)c2cc1OC [Example 1, 3-[2-(4-(1H-indol-3-yl)-3,6-dihydro-1(2H)-pyridinyl)ethyl]-6-7-dimethoxy-4(3H)-quinazolinone] | 219 | 125 | 2.87 |  |  |  | Ki (human 5-HT1A receptors): 83.8 nM
5 | COc1cc2ncn(CCN3CCC(c4c[nH]c5ccccc45)CC3)c(=O)c2cc1OC [Example 2, 3-{2-[4-(1H-indol-3-yl)-1-piperidinyl]ethyl}-6-7-dimethoxy-4(3H)-quinazolinone] | 230 | 273 |  | 72.1 | 36 |  | 
6 | COc1cc2ncn(CCN3CC=C(c4c[nH]c5ccc(F)cc45)CC3)c(=O)c2cc1OC [Example 3, 3-[2-(4-(5-fluoro-1H-indol-3-yl)-3,6-dihydro-1(2H)-pyridinyl)ethyl]-6-7-dimethoxy-4(3H)-quinazolinone] | 210 |  |  | 82.2 | 4.57 |  | 
7 | COc1cc2ncn(CCCCN3CC=C(c4c[nH]c5ccccc45)CC3)c(=O)c2cc1OC [Example 4, 3-[4-(4-(1H-indol-3-yl)-3,6-dihydro-1(2H)-pyridinyl)butyl]-6-7-dimethoxy-4(3H)-quinazolinone] |  | 132 | 1.25 | 215 |  |  | 
8 | COc1cc2ncn(CCCCN3CCC(c4c[nH]c5ccccc45)CC3)c(=O)c2cc1OC [Example 5, 3-{4-[4-(1H-indol-3-yl)-1-piperdinyl]butyl}-6,7-dimethoxy-4(3H)-quinazolinone] |  | 55.3 |  | 86.8 | 4.12 |  | 
9 | COc1cc2ncn(CCCN3CC=C(c4c[nH]c5ccccc45)CC3)c(=O)c2cc1OC [Example 6, 3-[3-(4-(1H-indol-3-yl)-3,6-dihydro-1(2H)-pyridinyl)propyl]-6-7-dimethoxy-4(3H)-quinazolinone] |  |  | 0.8 | 286 |  |  | IC50 (Human 5-HT Transporter): 43.2 nM
10 | COc1cc2ncn(CCCN3CCC(c4c[nH]c5ccccc45)CC3)c(=O)c2cc1OC [Example 7, 3-{3-(4-(1H-indol-3-yl)-1-piperidinyl]propyl}-6-7-dimethoxy-4(3H)-quinazolinone] |  | 173 |  | 201 | 11 |  | 
11 | COc1cc2ncn(CCCN3CC=C(c4c[nH]c5ccc(F)cc45)CC3)c(=O)c2cc1OC [Example 8, 3-[3-(4-(5-fluoro-1H-indol-3-yl)-3,6-dihydro-1(2H)-pyridinyl)propyl]-6-7-dimethoxy-4(3H)-quinazolinone] | 120 |  | 1.92 |  |  | 31 | 
12 | O=c1c2cc(Cl)cc(Br)c2ncn1CCCN1CC=C(c2c[nH]c3ccccc23)CC1 [Example 9, 8-bromo-6-chloro-3-[3-(4-(1H-indol-3-yl)-3,6-dihydro-1(2H)-pyridinyl)propyl]-4(3H)-quinazolinone] | 192 |  | 0.31 |  |  | 4 | 
13 | O=c1c2cc(Cl)ccc2ncn1CCCN1CC=C(c2c[nH]c3ccccc23)CC1 [Example 10, 6-chloro-3-[3-(4-(1H-indol-3-yl)-3,6-dihydro-1(2H)-pyridinyl)propyl]-4(3H)-quinazolinone] |  | 268 | 1.14 |  |  | 7 | 
14 | O=c1c2cc(Cl)ccc2ncn1CCCN1CCC(c2c[nH]c3ccccc23)CC1 [Example 11, 6-chloro-3-{3-[4-(1H-indol-3-yl)-1-piperidinyl]propyl}-4(3H)-quinazolinone] |  | 1910 |  |  | 40 | 26 | 
15 | O=c1c2ccccc2ncn1CCN1CC=C(c2c[nH]c3ccccc23)CC1 [Example 12, 3-[2-(4-(1H-indol-3-yl)-3,6-dihydro-1(2H)-pyridinyl)ethyl]-4(3H)-quinazolinone] |  | 88.1 |  | 38.2 | 5.5 |  | 
16 | O=c1c2ccccc2ncn1CCN1CCC(c2c[nH]c3ccccc23)CC1 [Example 13, 3-{2-[4-(1H-indol-3-yl)-1-piperidinyl]ethyl}-4(3H)-quinazolinone] |  | 651 |  |  | 37 | 42 | 
17 | Cn1cc(C2CCN(CCn3cnc4ccccc4c3=O)CC2)c2ccccc21 [Example 14, 3-{2-[4-(1-methyl-1H-indol-3-yl)-1-piperidinyl]ethyl}4-(3H)-quinazolinone] | 78 | 1480 |  |  | 116 | 43 | 
18 | O=c1c2cc(F)ccc2ncn1CCN1CC=C(c2c[nH]c3ccccc23)CC1 [Example 15, 6-fluoro-3-{2-[4-(1H-indol-3-yl)-3,6-dihydro-1(2H)-pyridinyl]ethyl}-4(3H)-quinazolinone] | 138 | 159 | 19 |  |  | 44 | 
19 | O=c1c2ccccc2nnn1CCN1CC=C(c2c[nH]c3ccccc23)CC1 [Example 16, 3-[2-(4-(1H-indol-3-yl)-3,6-dihydro-1(2H)-pyridinyl)ethyl]-1,2,3-benzotriazin-4(3H)-one] |  | 37.5 |  | 56.7 | 3.52 |  | 
20 | O=c1c2ccccc2nnn1CCN1CCC(c2c[nH]c3ccccc23)CC1 [Example 17, 3-{2-[4-(1H-indol-3-yl)-1-piperidinyl)ethyl}-1,2,3-benzotriazin-4(3H)-one] |  | 190 |  | 119 | 16 |  | 
21 | Cn1cc(C2CCN(CCn3nnc4ccccc4c3=O)CC2)c2ccccc21 [Example 18, 3-{2-[4-(1-methyl-1H-indol-3-yl)-1-piperidinyl]ethyl}-1,2,3-benzotriazin-4(3H)-one] |  | 231 |  | 80.9 | 21 |  | 
22 | O=c1c2ccccc2nnn1CCCN1CC=C(c2c[nH]c3ccccc23)CC1 [Example 19, 3-[3-(4-(1H-indol-3-yl)-3,6-dihydro-1(2H)-pyridinyl)propyl]-1,2,3-benzotriazin-4(3H)-one] |  |  | 0.15 | 315 |  |  | IC50 (Human 5-HT Transporter): 15.7 nM
23 | O=c1c2ccccc2nnn1CCCN1CCC(c2c[nH]c3ccccc23)CC1 [Example 20, 3-{3-[4-(1H-indol-3-yl)-1-piperidin]propyl}-1,2,3-benzotriazin-4(3H)-one] |  |  |  |  | 10 | 49 | 
24 | Cn1cc(C2=CCN(CCCn3nnc4ccccc4c3=O)CC2)c2ccccc21 [Example 21, 3-[3-(4-(1-methyl-1H-indol-3-yl)-3,6-dihydro-1(2H)-pyridinyl)propyl]-1,2,3-benzotriazin-4(3H)-one] | 70 |  | 0.56 | 631 |  |  | 
25 | O=c1n(CCCN2CCC(c3c[nH]c4ccccc34)CC2)nc2ccccn12 [Example 23, 2-{3-[4-(1H-Indol-3-yl)-piperidin-1-yl]-propyl}-2H-[1,2,4]triazolo[4,3-a]pyridin-3-one] | 111.7 |  |  |  |  |  | 
26 | O=c1n(CCN2CCC(c3c[nH]c4ccccc34)CC2)nc2ccccn12 [Example 25, 2-{2-[4-(1H-Indol-3-yl)-piperidin-1-yl]-ethyl}-2H-[1,2,4]triazolo[4,3-a]pyridin-3-one] | 142 |  |  |  |  |  | 

— patent US7332506B2, “Substituted-3-indolyl-4-piperidino-alkyl heterocycles for the treatment of depression” (Wyeth, priority 2002, dated 2008)
